This experiment concerns the target T1, BaCDA (Priestia aryabhattai, UniProt A0A7W3NGR0).
T1 construct: gene HNP21_005748
As to the kind of experiment: biochemical. Particulars: read-out: Relative activity (%) / Ethylene glycol chitin.

T1 sequence (A0A7W3NGR0 1-254): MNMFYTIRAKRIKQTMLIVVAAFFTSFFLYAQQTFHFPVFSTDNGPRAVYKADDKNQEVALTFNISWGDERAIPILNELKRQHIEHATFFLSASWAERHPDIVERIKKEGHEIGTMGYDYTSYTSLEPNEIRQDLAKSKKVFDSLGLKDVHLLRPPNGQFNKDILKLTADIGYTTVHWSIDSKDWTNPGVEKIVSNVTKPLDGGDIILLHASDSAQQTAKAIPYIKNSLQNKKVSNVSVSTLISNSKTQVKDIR

Consider `CC(=O)O` [acetate], for which the activity at 10000 µM stood at 49.9 ± 3.89%.

For the origin of these results see PMC8636556, “Cloning, expression, purification and characterization of chitin deacetylase extremozyme from halophilic Bacillus aryabhattai B8W22” (3 Biotech, 2021).
